Results taken from patent publication US11098032B2, “Pyran dervatives as CYP11A1 (cytochrome P450 monooxygenase 11A1) inhibitors” (ORION CORPORATION, priority 2016, dated 2021).

Molecular target: T1, CYP11A1 (Homo sapiens, UniProt P05108)
T1 construct: human H295R adrenocortical carcinoma cell line was used as source of enzyme; endogenous in cells; host or cells: H295R human adrenocortical carcinoma cells
T1 sequence (P05108 40-521): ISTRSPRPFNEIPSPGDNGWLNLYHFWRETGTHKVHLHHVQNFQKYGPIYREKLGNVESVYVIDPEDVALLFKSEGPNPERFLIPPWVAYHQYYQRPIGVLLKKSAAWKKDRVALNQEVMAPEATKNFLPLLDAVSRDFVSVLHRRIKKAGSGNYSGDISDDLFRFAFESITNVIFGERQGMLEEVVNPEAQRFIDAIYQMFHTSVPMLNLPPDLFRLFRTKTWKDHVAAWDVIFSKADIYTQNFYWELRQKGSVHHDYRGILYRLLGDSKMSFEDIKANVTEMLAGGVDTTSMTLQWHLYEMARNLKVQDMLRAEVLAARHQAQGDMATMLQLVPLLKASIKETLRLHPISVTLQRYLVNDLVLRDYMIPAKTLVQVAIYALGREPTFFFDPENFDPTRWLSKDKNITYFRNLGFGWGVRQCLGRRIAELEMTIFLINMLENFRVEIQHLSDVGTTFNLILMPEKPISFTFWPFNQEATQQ
Experiment: CYP11A1 inhibition: modified isocaproic acid release assay (IARA) in H295R cells
Format: cell-based
Settings: human H295R adrenocortical carcinoma cells treated three days, 3 nM [24,25-3H]-labelled cholesterol, 1% DMSO, 10 concentrations in duplicates; read-out: IC50 of the test compounds on CYP11A1 inhibition
Procedure, shortened: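 Cholesterol side-chain cleavage followed as tritiated isocaproic acid in charcoal-extracted medium, counted by scintillation. Substrate was 3 nM [24,25-3H]-cholesterol on human H295R cells exposed for three days to ten compound concentrations (duplicates, 1% DMSO); IC50 derived.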

Row | Compound | IC50 [µM]
1 | CC(c1cc(=O)c(OCc2ccc(S(C)(=N)=O)cc2)co1)N1Cc2ccccc2C1 (stereo not shown) [Compound 91, 2-(1-(Isoindolin-2-yl)ethyl)-5-((4-(S-methylsulfonimidoyl)benzyl)oxy)-4H-pyran-4-one] | < 0.15
2 | Cc1ccc(S(=O)(=O)N=S2(=O)CCC(COc3coc(CN4Cc5ccccc5C4)cc3=O)CC2)cc1 (stereo not shown) [Compound 194, N-(4-(((6-(Isoindolin-2-ylmethyl)-4-oxo-4H-pyran-3-yl)oxy)methyl)-1-oxido-tetrahydro-2H-thiopyran-1-ylidene)-4-methylbenzenesulfonamide] | 0.15 to 0.3
3 | CC(F)(F)C(=O)N1CCC(COc2coc(CN3Cc4ccccc4C3)cc2=O)CC1 [Compound 222, 5-((1-(2,2-Difluoropropanoyl)piperidin-4-yl)methoxy)-2-(isoindolin-2-ylmethyl)-4H-pyran-4-one] | < 0.15
4 | O=c1cc(CN2Cc3ccccc3C2)occ1OCc1ccc(S(=O)(=O)C(F)F)cc1 [Compound 22, 5-((4-((Difluoromethyl)sulfonyl)benzyl)oxy)-2-(isoindolin-2-ylmethyl)-4H-pyran-4-one] | < 0.15
5 | CCS(=O)(=O)N1CCC(COc2coc(CN3Cc4ccc(F)cc4C3)cc2=O)CC1 [Compound 189, 5-((1-(Ethylsulfonyl)piperidin-4-yl)methoxy)-2-((5-fluoroisoindolin-2-yl)methyl)-4H-pyran-4-one] | < 0.15
6 | O=c1cc(CN2Cc3ccccc3C2)occ1OCC1CCSCC1 [Compound 196, 2-(Isoindolin-2-ylmethyl)-5-((tetrahydro-2H-thiopyran-4-yl)methoxy)-4H-pyran-4-one] | < 0.15
7 | CC(=O)N1CCC(COc2coc(CN3Cc4ccccc4C3)cc2=O)CC1 [Compound 252, 5-((1-Acetylpiperidin-4-yl)methoxy)-2-(isoindolin-2-ylmethyl)-4H-pyran-4-one] | 0.15 to 0.3
8 | CC(C)(C)OC(=O)N1CCC[C@H](COc2coc(CN3Cc4ccccc4C3)cc2=O)C1 [Compound 201, (S)-tert-Butyl 3-(((6-(isoindolin-2-ylmethyl)-4-oxo-4H-pyran-3-yl)oxy)methyl)-piperidine-1-carboxylate] | 0.301 to 2
9 | O=c1cc(CN2Cc3ccccc3C2)occ1OCC1CCN(S(=O)(=O)C2CC2)CC1 [Compound 187, 5-((1-(Cyclopropylsulfonyl)piperidin-4-yl)methoxy)-2-(isoindolin-2-ylmethyl)-4H-pyran-4-one] | < 0.15
10 | C[C@H]1c2ccccc2CN1Cc1cc(=O)c(OCc2ccc(C(=O)N(C)C)cc2)co1 [Compound 132, (S)—N,N-Dimethyl-4-(((6-((1-methylisoindolin-2-yl)methyl)-4-oxo-4H-pyran-3-yl)oxy)methyl)benzamide] | 0.301 to 2
11 | CCOC(=O)C(=O)N1CCC(COc2coc(CN3Cc4ccccc4C3)cc2=O)CC1 [Compound 269, Ethyl 2-(4-(((6-(isoindolin-2-ylmethyl)-4-oxo-4H-pyran-3-yl)oxy)methyl)-piperidin-1-yl)-2-oxoacetate] | 0.15 to 0.3
12 | CN(C)C(=O)c1ccc(COc2coc(CN3Cc4cccc(F)c4C3)cc2=O)cc1 [Compound 32, 4-(((6-((4-Fluoroisoindolin-2-yl)methyl)-4-oxo-4H-pyran-3-yl)oxy)methyl)-N,N-dimethylbenzamide] | 0.301 to 2
13 | O=c1cc(CN2Cc3ccccc3C2)occ1OCc1ccc(-c2ccccc2)cc1 [Compound 164, 5-([1,1′-Biphenyl]-4-ylmethoxy)-2-(isoindolin-2-ylmethyl)-4H-pyran-4-one] | 0.15 to 0.3
14 | CCOC(=O)c1cnn(-c2ccc(COc3coc(CN4Cc5ccccc5C4)cc3=O)cc2)c1 [Compound 40, Ethyl 1-(4-(((6-(isoindolin-2-ylmethyl)-4-oxo-4H-pyran-3-yl)oxy)methyl)phenyl)-1H-pyrazole-4-carboxylate] | 0.301 to 2
15 | CCS(=O)(=O)N1CCC(C)(COc2coc(CN3Cc4ccccc4C3)cc2=O)CC1 [Compound 192, 5-((1-(Ethylsulfonyl)-4-methylpiperidin-4-yl)methoxy)-2-(isoindolin-2-ylmethyl)-4H-pyran-4-one] | < 0.15
16 | CC(C)S(=O)(=O)N1CC=C(COc2coc(CN3Cc4ccccc4C3)cc2=O)CC1 [Compound 100, 2-(Isoindolin-2-ylmethyl)-5-((1-(isopropylsulfonyl)-1,2,3,6-tetrahydropyridin-4-yl)methoxy)-4H-pyran-4-one] | 0.15 to 0.3
17 | CS(=O)(=O)N1CCC(COc2coc(CN3Cc4cc5c(cc4C3)OCO5)cc2=O)CC1 [Compound 209, 2-((5,7-Dihydro-6H-[1,3]dioxolo[4,5-f]isoindol-6-yl)methyl)-5-((1-(methyl-sulfonyl)piperidin-4-yl)methoxy)-4H-pyran-4-one] | 0.15 to 0.3
18 | O=c1cc(CN2Cc3ccccc3C2)occ1OCc1ccc(-n2ccnn2)cc1 [Compound 107, 5-((4-(1H-1,2,3-triazol-1-yl)benzyl)oxy)-2-(isoindolin-2-ylmethyl)-4H-pyran-4-one] | 0.15 to 0.3
19 | O=c1cc(CN2Cc3ccccc3C2)occ1OCC1CCN(S(=O)(=O)N2CCCC2)CC1 [Compound 267, 2-(Isoindolin-2-ylmethyl)-5-((1-(pyrrolidin-1-ylsulfonyl)piperidin-4-yl)methoxy)-4H-pyran-4-one] | 0.15 to 0.3

Results, then the compound that gave them:

Row | IC50 [µM] | Compound
20 | 0.301 to 2 | CN(C)C(=O)c1ccc(COc2coc(CN3CCc4ccccc4C3)cc2=O)cc1 [Compound 119, 4-(((6-((3,4-Dihydroisoquinolin-2(1H)-yl)methyl)-4-oxo-4H-pyran-3-yl)oxy)-methyl)-N,N-dimethylbenzamide]
21 | 0.15 to 0.3 | CC(C)(O)Cc1ccc(COc2coc(CN3CCc4ccccc4C3)cc2=O)cc1 [Compound 46, 2-((3,4-Dihydroisoquinolin-2(1H)-yl)methyl)-5-((4-(2-hydroxy-2-methyl-propyl)benzyl)oxy)-4H-pyran-4-one]
22 | < 0.15 | C=C(C)c1ccc(COc2coc(CN3Cc4ccccc4C3)cc2=O)cc1 [Compound 47]
23 | 0.15 to 0.3 | CN(C)C(=O)c1ccc(COc2coc(CN3Cc4ccccc4C3)cc2=O)cc1 [Compound 120, 4-(((6-(Isoindolin-2-ylmethyl)-4-oxo-4H-pyran-3-yl)oxy)methyl)-N,N-dimethylbenzamide]
24 | < 0.15 | O=C(c1ccc(COc2coc(CN3Cc4ccccc4C3)cc2=O)cc1)N1CCCC1 [Compound 122, 2-(Isoindolin-2-ylmethyl)-5-((4-(pyrrolidine-1-carbonyl)benzyl)oxy)-4H-pyran-4-one]
25 | 0.15 to 0.3 | CN(C)C(=O)c1ccc(COc2coc(CN3Cc4ccccc4C3)cc2=O)c(F)c1 [Compound 61, 3-Fluoro-4-(((6-(isoindolin-2-ylmethyl)-4-oxo-4H-pyran-3-yl)oxy)methyl)-N,N-dimethylbenzamide]
26 | 0.301 to 2 | N#Cc1ccc(COc2coc(CN3CCc4ccccc4C3)cc2=O)cc1Cl [Compound 118, 2-Chloro-4-(((6-((3,4-dihydroisoquinolin-2(1H)-yl)methyl)-4-oxo-4H-pyran-3-yl)oxy)methyl)benzonitrile]
27 | 0.301 to 2 | CNC(=O)c1ccc(COc2coc(CN3Cc4ccccc4C3)cc2=O)cc1 [Compound 62, 4-(((6-(Isoindolin-2-ylmethyl)-4-oxo-4H-pyran-3-yl)oxy)methyl)-N-methylbenzamide]
28 | 0.301 to 2 | CS(=O)(=O)c1ccc(COc2coc(CN3CCc4ccccc4C3)cc2=O)c(Cl)c1 [Compound 18, 5-((2-Chloro-4-(methylsulfonyl)benzyl)oxy)-2-((3,4-dihydroisoquinolin-2(1H)-yl)methyl)-4H-pyran-4-one]
